Experimental data taken from US5565493A, “Collagen metabolism ameliorant and its use in the stimulation of hair growth” (Kanebo, Ltd., priority 1990, dated 1996).

Key:
[1] = tested on: human fibrosarcoma cell strain HT-P11; test: Action of MSE for promoting procollagenase production (FITC-collagen collagenase activity of culture supernatant); assay type: cell-based
Experimental: A test was carried out using anchorage independent cell strain which is derived from a human fibrosarcoma cell strain HT 1080 (ATCC CCL121) and growable in a serum-free, protein-free medium (referred to as "human fibrosarcoma cell strain HT-P11".). Namely, the above-described human fibrosarcoma cell strain HT 1080 (ATCC CCL1211) was cultured in the presence of serum in a flask having a base area of 25 cm^2 and the medium was replaced by the HF-AV medium. Replacing a fifth to half part of the cultured suspension with a fresh HF-AV medium every 3-4 days, the culture was continued in a serum-free, protein-free medium. The thus grown cells were used. The cells were pre-cultured as below to prepare a cell suspension which was then tested.
The human fibrosarcoma cell strain HT-P11 was suspended with a density of 1×10^5 cells/ml in the HF-AV medium. Flasks (each having a base area of 75 cm^2) were charged, respectively, with 20 ml of the resulting suspension, and stationarily cultured at 37° C. for 3 days in a 95% air/5% carbon dioxide gas atmosphere. […]
Using a type-I collagen labeled with fluorescein isothiocyanate (hereinafter abbreviated as "FITC") (a 1 mg/ml conc. FITC/collagen acetic acid solution, manufactured by Cosmo Bio Co.) as a substrate solution, the activity (unit/ml) of the above collagenase solution was determined in accordance with the following procedure.

[2] = tested on: Rats of hepatic fibrosis induced by CCl4; test: Effect of MSE in medical treatment for hepatic fibrosis (Hyp in liver and blood, blood plasma biochemistry); assay type: in vivo, male rats of Wistar origin; details: mean ± standard error (n = 5)
Experimental: (§1) A 2 ml/kg dose of an equivalent mixture of carbon tetra-chloride (CCl4) and olive oil was administered hypodermically to the back of male rats of Wistar origin (5 weeks old; a weight of 122-134 g; and 5 rats/group) twice a week (on Monday and Thursday) for 10 weeks to produce rats of hepatic fibrosis. A 3 ml/kg dose of a 66.6 mg/ml conc. MSE aqueous solution was administered perorally once a day for continual 7 weeks (except Sundays) from the 4th week after the commencement of the CCl4 administration.
Then, the whole blood was gathered from the abdominal aorta and collected in a test tube treated with heparin. This was centrifuged to obtain blood plasma. The blood plasma was stored at -80° C. until the under-mentioned biochemical examinations.
(§2) Further, after gathering the whole-blood, the liver was extracted, weighed and divided into halves under an ice-chilled condition. Then, one of the halves was frozen at -80° C. for quantification of hydroxyproline (hereinafter abbreviated as "Hyp") in the liver and the other half was fixed with a 10% formaline solution for a histological examination.
(§3) On the other hand, there were provided, as an untreated group, a group of the rats of hepatic fibrosis administered with 3 ml/kg of refined water in lieu of the MSE aqueous solution according to the same schedule as the above and, as a group of normal rats, a group bred for 10 weeks without administering CCl4 and the MSE aqueous solution. Blood-gathering and liver-extraction were conducted on these groups in the same manner as the above.
(§4) Then, using the above each liver and blood plasma, the Hyp in the liver and blood were quantified. Additionally, the Hyp is an index of the quantity of the collagen [Methods of Biochemical Analysis, Vol. 15, p. 25 (1967)]. Further, biochemical examinations of the blood plasma [refer to the under-described items (b)-(h)] and histological examinations of the liver [refer to the under-described item (i)], as indices of liver injury, were conducted.
(a) Quantities of the Hyp in liver and blood.
(a-1) Quantity of the Hyp in a liver: about 100 mg of a liver were weighed precisely and added with 250 μl of physiological salt solution. Then, the liver was disintegrated by agitating vigorously (at 28,000 rpm for 30 seconds) with a homogenizer (PHYSCOTRON™, manufactured by Niti-On Medical and Physical Instruments Mfg. Co.).
The obtained suspension was centrifuged (at 5,000 rpm for 10 min.) and separated into a supernatant sample and a precipitation sample. By adding a 6N hydrochloric acid, each sample was increased to 2 ml and hydrolyzed at 110° C. for 24 hours. The hydrolyzate solution was centrifugally condensed to remove hydrochloric acid therefrom and the condensate was dissolved in a 0.01N hydrochloric acid.
The obtained solution was quantified according to a determination method of amino acids by a high-performance liquid chromatography with a post-column derivatization [Proceedings of the National Academy of Sciences of the U.S.A., Vol. 72, No. 2, p. 619 (1975)] to find quantities of the Hyp in the supernatant sample and precipitation sample, respectively. Then, a quantity of the Hyp per unit weight of the liver (μmol/g of liver) was calculated from the total quantity of the Hyps in the supernatant sample and precipitation sample and the weight of the liver.
(a-2) Quantity of the Hyp in blood: 100 μl of blood plasma was admixed with 100 μl of a 5 w/v % sulfo-salicylic acid aqueous solution under an ice-chilled condition and centrifugally separated (10,000 rpm; for 3 min.) to obtain a supernatant liquor. The Hyp in the supernatant liquor was quantified according to the above-mentioned determination method of amino acids (μmol/1).
(b) Quantity of glutamic-pyruvic transaminase (hereinafter abbreviated as "GPT"):
(b-3) Measurement of test sample.
(c) Quantity of glutamic-oxaloacetic transaminase (hereinafter abbreviated as "GOT"): […]

[3] = tested on: Rats of hepatic fibrosis induced by CCl4; test: Histological examination of liver; assay type: in vivo, male rats of Wistar origin; details: as compared with the untreated group; hematoxylin-eosin
Experimental: as §1, §2, §3, §4
(i) Histological examination of liver: a liver was sliced according to a usual method and, after staining with hematoxylin-eosin, it was microscopically observed.

male mice of ICR strain = test: Acute toxicity; assay type: in vivo; details: single peroral dose 5 g/kg of body weight, 5 male mice, observed 7 days
Experimental: An acute toxicity was examined as follows:
To 5 male mice of ICR strain (5 weeks old; a weight of 24~28 g), a 25 g/ml conc. MSE aqueous solution that had been prepared by dissolving MSE in refined water was perorally administered once in a dose of […] of the body weight (5 g/kg of the body weight, as MSE).

[4] = tested on: male rabbits of Japanese native strain; test: Skin irritative test (Draize method); assay type: in vivo
Experimental: Using male rabbits of Japanese native strain (a weight of about 3 kg), a skin irritative test was conducted in accordance with the Draize method [Appraisal of the Safety of Chemicals in Foods, Drugs and Cosmetics, p.46 (1959) edited and published by the Editorial Committee, Association of Food & Drug Official of U.S.A.].
An abraded region (injured skin) was produced on the hair-trimmed back of the rabbits. An adhesive plaster for a patch test (RIBBON-AID™ of 1.2 cm×1.6 cm, manufactured by Liba-Tape & Co., Ltd.) was impregnated with 0.1 ml of a 1 wt. % MSE aqueous solution that had been prepared by dissolving MSE in refined water and attached onto the injured skin and a normal skin, respectively. After 24 hours, the plaster was detached to observe erythematic and edematous conditions of the skins. After 48 hours from detaching of the plaster, the same observation was made.
Based on the above scores and the following equation, primary irritant scores were calculated.
Primary irritant score=(A24 +A48)/2+(B24
Then, irritation degrees of the test compounds were appraised based upon the primary irritative scores and the criteria shown in Table 6.

For `CN[C@@H](CO)C(=O)O` [MSE, N-methyl-L-serine], the Production of procollagenase ([1]; mean ± standard error (N = 3), control 3.7 ± 0.2, 600 μM MSE solution, 0.4 ml added to 2 ml culture, 13 days, P < 0.01) was 7.9 ± 0.7 unit/ml of culture solution, the Production promotion rate ([1]; versus no additives (control)) was 114% and the “f: Quantity of alkaline phosphatase” value ([2]; Bessey-Lowry's method, untreated 1270 ± 90, p < 0.01) was 956 ± 114 unit/l. For the same compound, the “e: Quantity of gross bilirubin” value ([2]; Malloy-Evelyn's method, untreated 0.36 ± 0.02, p < 0.1) was 0.26 ± 0.05 m9/dl, the “g: Thymol turbidimetric test value (TTT)” value ([2]; blood plasma, untreated 0.26 ± 0.06) was 0.18 ± 0.13 U of Kunkel and the “h: Zinc sulphate turbidimetric test value (ZTT)” value ([2]; blood plasma, untreated 0.78 ± 0.11, p < 0.01) was 0.26 ± 0.07 U of Kunkel. For the same compound, the “d: Quantity of γ-glutamyl transpeptidase (γ-GTP)” value ([2]; blood plasma, untreated 17.6 ± 0.7, p < 0.1) was 14.4 ± 1.7 U/liter, the “a-2: Quantity of the Hyp in blood” value ([2]; blood plasma, untreated 30.6 ± 1.1, p < 0.1) was 39.1 ± 3.6 μmol/1 and the “b: Quantity of glutamic-pyruvic transaminase (GPT)” value ([2]; blood plasma, untreated 948 ± 92, p < 0.01) was 537 ± 182 Reitman-Frankel unit. For the same compound, the “c: Quantity of glutamic-oxaloacetic transaminase (GOT)” value ([2]; blood plasma, untreated 2170 ± 184, p < 0.01) was 875 ± 324 Reitman-Frankel unit, the “a-1: Quantity of the Hyp in liver” value ([2]; peroral 3 ml/kg of 66.6 mg/ml once a day, 7 weeks, untreated 10.0 ± 1.5, p < 0.1) was 6.79 ± 0.82 μmol/g of liver and the cholangioepithelial cytogenesis [3] was “mitigated”. For the same compound, the cholangiolar hyperplasia [3] was “mitigated”, the diffuse hepatocyte vacuolization [3] was “mitigated” and the deaths by administration (male mice of ICR strain) was “no deaths”. The primary irritative score ([4]; 0.1 ml of 1 wt. % MSE aqueous solution, injured and normal skin, after 24 and 48 hours) was “zero” and the appraisal of irritation ([4]; based on primary irritative score, 1 wt. % MSE aqueous solution) was “light irritation”.
